Assay results as given in patent US7501430B2 (ArQule, Inc., priority 2006, dated 2009).
pIC50: −log10 of the molar value. Where two headings read alike, the source gives them in different places.

Target: T1, mutant B-RAF (Homo sapiens, UniProt P15056, V600E)
T1 construct: purchased Upstate (Charlottesville, Va.)
Assay: RAF biochemical assay (MEK-1 phosphorylation, anti-phospho MEK1/2 detection)
Details: for inhibition at 10 µM: read-out: Mutant B-RAF % inhibition
Method: Materials: The RAF kinases and the anti-phospho MEK1/2 antibody were from Upstate (Charlottesville, Va.). The RAF substrate used was full length N-terminal GST-MEK-1, which was expressed in E. coli and purified in-house by HPLC. All proteins were aliquoted and stored at −80° C.
Compounds were serially diluted in assay buffer containing 1% DMSO and 20 μL of test compound at a concentration 3-fold more than the final concentration, and were added to a polypropylene V-well reaction plate. Vehicle control wells received buffer only with DMSO at equivalent concentrations to the test wells. […] These reaction plates were incubated at room temperature for 30 minutes. Capture of MEK-1 was initiated by transferring 50 μl of the reaction mixture to a Nunc Maxisorp™ microplate that is designed for non-specific protein capture. After 30 minute capture of MEK-1 at room temperature, this plate was washed with TBST (6×200 μL/well) to fully terminate the reaction. The plate was then blocked for 1 hour by the addition of 100 μl/well of Superblock™ in phosphate buffered saline (PBS) blocking reagent. Plate was again washed with TBST (6 times with 200 μL/well), followed by the addition of 70 μL/well of Upstate anti-phospho MEK 1/2 diluted 1:1000 in Pierce Superblock (PBS). After a 60 minute incubation, this plate was washed with TBST (6 times with 200 μL/well), and 70 μL of the secondary antibody (Pierce Alkaline Phosphatase tagged goat anti-rabbit) prepared at 1:4000 in Superblock, were added. After a 45 minute incubation at room temperature, the wells of the microplate were washed with TBST (6 times with 200 μL/well), and thereafter 100 μl/well of Attophos™ fluorescent alkaline phosphatase substrate was added according to the manufacturer's instructions (JBL Scientific).

T1 sequence (P15056 whole entry V600E): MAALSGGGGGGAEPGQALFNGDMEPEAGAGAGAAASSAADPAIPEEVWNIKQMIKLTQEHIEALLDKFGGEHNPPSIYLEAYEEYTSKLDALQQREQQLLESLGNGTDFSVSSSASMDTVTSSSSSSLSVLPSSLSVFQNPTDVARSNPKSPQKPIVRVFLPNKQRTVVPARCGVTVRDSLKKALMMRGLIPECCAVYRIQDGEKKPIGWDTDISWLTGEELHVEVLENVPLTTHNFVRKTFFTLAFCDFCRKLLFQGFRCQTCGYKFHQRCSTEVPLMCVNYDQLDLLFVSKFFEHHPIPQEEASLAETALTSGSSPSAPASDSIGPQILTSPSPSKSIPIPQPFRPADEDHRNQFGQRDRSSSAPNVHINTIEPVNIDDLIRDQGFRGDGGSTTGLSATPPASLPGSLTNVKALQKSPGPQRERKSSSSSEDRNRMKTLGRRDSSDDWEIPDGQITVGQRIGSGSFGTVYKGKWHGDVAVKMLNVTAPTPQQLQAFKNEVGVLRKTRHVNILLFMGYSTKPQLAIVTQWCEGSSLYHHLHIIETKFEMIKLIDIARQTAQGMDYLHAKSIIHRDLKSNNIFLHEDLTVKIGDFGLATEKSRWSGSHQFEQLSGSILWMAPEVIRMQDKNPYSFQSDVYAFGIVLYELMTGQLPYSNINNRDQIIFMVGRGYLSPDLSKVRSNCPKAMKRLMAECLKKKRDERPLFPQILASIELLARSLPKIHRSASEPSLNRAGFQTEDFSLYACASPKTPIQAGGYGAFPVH

`CC(C)c1ccc(S(=O)(=O)N2CCC[C@@H](Nc3nccc(-c4c(-c5ccc(F)cc5)nc5occn45)n3)C2)cc1` [Example 48, 4-[6-(4-fluorophenyl)imi-dazo[2,1-b][1,3]oxazol-5-yl]-N-{(3R)-1-[(4-isopropyl-phenyl)sulfonyl]piperidin-3-yl}pyrimidin-2-amine] was tested, and the pIC50 was 5.52.

For `O=S(=O)(c1ccc(OC(F)(F)F)cc1)N1CCC[C@@H](Nc2nccc(-c3c(-c4ccc(F)cc4)nc4occn34)n2)C1` [Example 49, 4-[6-(4-fluorophenyl)imi-dazo[2,1-b][1,3]oxazol-5-yl]-N-((3R)-1-{(4-(trifluoro-methoxy)phenyl]sulfonyl}piperidin-3-yl)pyrimidin-2-amine], the inhibition at 10 µM was 32%.

With `O=S(=O)(c1cccc(Cl)c1)N1CCC[C@@H](Nc2nccc(-c3c(-c4ccc(F)cc4)nc4occn34)n2)C1` [Example 50, N-{(3R)-1-[(3-chlorophenyl)sulfonyl]piper-idin-3-yl}-4-[6-(4-fluorophenyl)imidazo[2,1-b][1,3]oxazol-5-yl]pyrimidin-2-amine] the inhibition at 10 µM (@ 10 uM) was 35%.

`O=S(=O)(c1cc(Cl)cc(Cl)c1)N1CCC[C@@H](Nc2nccc(-c3c(-c4ccc(F)cc4)nc4occn34)n2)C1` [Example 51, N-{(3R)-1-[(3,5-dichlorophenyl)sulfonyl]pip-eridin-3-yl}-4-[6-(4-fluorophenyl)imidazo[2,1-b][1,3]oxazol-5-yl]pyrimidin-2-amine] was tested, and the inhibition at 10 µM (@ 10 uM) was 25%.

In the case of `O=S(=O)(c1cccc(F)c1)N1CCC[C@@H](Nc2nccc(-c3c(-c4ccc(F)cc4)nc4occn34)n2)C1` [Example 52, 4-[6-(4-fluorophenyl)imi-dazo[2,1-b][1,3]oxazol-5-yl]-N-{(3R)-1-[(3-fluorophenyl)sulfonyl]piperidin-3-yl}pyr-imidin-2-amine], the inhibition at 10 µM was 55%.

In the case of `Cc1ccccc1S(=O)(=O)N1CCC[C@@H](Nc2nccc(-c3c(-c4ccc(F)cc4)nc4occn34)n2)C1` [Example 53, 4-(6-(4-fluorophenyl)imi-dazo[2,1-b][1,3]oxazol-5-yl]-N-{(3R)-1-[(2-methylphenyl)sulfonyl]piperidin-3-yl}pyrimidin-2-amine], the inhibition at 10 µM was 42%.

Molecule `O=S(=O)(c1c(F)cccc1F)N1CCC[C@@H](Nc2nccc(-c3c(-c4ccc(F)cc4)nc4occn34)n2)C1` [Example 54, N-{(3R)-1-[(2,6-difluoro-phenyl)sulfonyl]piperidin-3-yl}-4-[6-(4-fluorophenyl)imidazo[2,1-b][1,3]oxazol-5-yl]pyrimidin-2-amine] has an inhibition at 10 µM (@ 10 uM) of 47%.

Molecule `N#Cc1ccc(S(=O)(=O)N2CCC[C@@H](Nc3nccc(-c4c(-c5ccc(F)cc5)nc5occn45)n3)C2)cc1` [Example 55, 4-{[(3R)-3-({4-[6-(4-fluorophenyl)imidazo[2,1-b][1,3]oxazol-5-yl]pyrimidin-2-yl}amino)piperidin-1-yl]sulfonyl}benzonitrile] has a pIC50 (read-out: Mutant B-RAF IC50) of 6.20.

With `O=S(=O)(c1cc(C(F)(F)F)cc(C(F)(F)F)c1)N1CCC[C@@H](Nc2nccc(-c3c(-c4ccc(F)cc4)nc4occn34)n2)C1` [Example 56, N-((3R)-1-{[3,5-bis(trifluoromethyl)phenyl]sulfonyl}piperidin-3-yl)-4-[6-(4-fluorophenyl)imidazo[2,1-b][1,3]oxazol-5-yl]pyrimidin-2-amine] the inhibition at 10 µM (@ 10 uM) was 57%.

For `COc1cccc(S(=O)(=O)N2CCC[C@@H](Nc3nccc(-c4c(-c5ccc(F)cc5)nc5occn45)n3)C2)c1` [Example 57, 4-[6-(4-fluorophenyl)imi-dazo[2,1-b][1,3]oxazol-5-yl]-N-{(3R)-1-[(3-methoxy-phenyl)sulfonyl]piperidin-3-yl}pyrimidin-2-amine], the inhibition at 10 µM was 34%.

`O=S(=O)(c1ccc(C(F)(F)F)cc1)N1CCC[C@@H](Nc2nccc(-c3c(-c4ccc(F)cc4)nc4occn34)n2)C1` [Example 58, 4-[6-(4-fluorophenyl)imi-dazo[2,1-b][1,3]oxazol-5-yl]-N-((3R)-1-{[4-(trifluoro-methyl)phenyl]sulfonyl}piperidin-3-yl)pyrimidin-2-amine] showed a pIC50 of 6.39.

`O=C(O)c1ccc(S(=O)(=O)N2CCC[C@@H](Nc3nccc(-c4c(-c5ccc(F)cc5)nc5occn45)n3)C2)cc1` [Example 59, 4-{[(3R)-3-({4-[6-(4-fluorophenyl)imidazo[2,1-b][1,3]oxazol-5-yl]pyrimidin-2-yl}amino)piperidin-1-yl]sulfonyl}benzoic acid] gave a pIC50 (read-out: Mutant B-RAF IC50) of 6.24.

With `O=S(=O)(c1ccc(Oc2ccccc2)cc1)N1CCC[C@@H](Nc2nccc(-c3c(-c4ccc(F)cc4)nc4occn34)n2)C1` [Example 60, 4-[6-(4-fluorophenyl)imi-dazo[2,1-b][1,3]oxazol-5-yl]-N-{(3R)-1-[(4-phenoxy-phenyl)sulfonyl]piperidin-3-yl}pyrimidin-2-amine] the inhibition at 10 µM was 15%.

Work on `COc1ccc(Cl)cc1S(=O)(=O)N1CCC[C@@H](Nc2nccc(-c3c(-c4ccc(F)cc4)nc4occn34)n2)C1` [Example 61, N-{(3R)-1-[(5-chloro-2-methoxyphenyl)sulfonyl]piperidin-3-yl}-4-[6-(4-fluorophenyl)imidazo[2,1-b][1,3]oxazol-5-yl]pyrimidin-2-amine] yielded an inhibition at 10 µM (@ 10 uM) of 37%.

With `Fc1ccc(-c2nc3sccn3c2-c2ccnc(N[C@@H]3CCCNC3)n2)cc1` [Example 62] the inhibition at 10 µM was 45%.

`O=C(O)CCc1ccc(S(=O)(=O)N2CCC[C@@H](Nc3nccc(-c4c(-c5ccc(F)cc5)nc5occn45)n3)C2)cc1` [Example 63, 3-(4-{[(3R)-3-({4-[6-(4-fluorophenyl)imidazo[2,1-b][1,3]oxazol-5-yl]pyrimidin-2-yl}amino)piperidin-1-yl]sulfonyl}phenyl)propanoicacid] was tested, and the pIC50 (read-out: Mutant B-RAF IC50) was 6.36.

`CC(=O)Nc1nc(C)c(S(=O)(=O)N2CCC[C@@H](Nc3nccc(-c4c(-c5ccc(F)cc5)nc5occn45)n3)C2)s1` [Example 64, N-(5-{[(3R)-3-({4-[6-(4-fluorophenyl)imidazo[2,1-b][1,3]oxazol-5-yl]pyrimidin-2-yl}amino)piperidin-1-yl]sulfonyl}-4-methyl-1,3-thiazol-2-yl)acetamide] gave an inhibition at 10 µM (@ 10 uM) of 58%.

Work on `Cc1nc(C)c(S(=O)(=O)N2CCC[C@@H](Nc3nccc(-c4c(-c5ccc(F)cc5)nc5occn45)n3)C2)s1` [Example 65, N-{(3R)-1-[(2,4-dimethyl-1,3-thiazol-5-yl)sulfonyl]piper-idin-3-yl}-4-[6-(4-fluorophenyl)imidazo[2,1-b][1,3]oxazol-5-yl]pyrimidin-2-amine] yielded an inhibition at 10 µM (@ 10 uM) of 42%.

`Cc1nc(S(=O)(=O)N2CCC[C@@H](Nc3nccc(-c4c(-c5ccc(F)cc5)nc5occn45)n3)C2)cn1C` [Example 66, N-{(3R)-1-[(1,2-dimethyl-1H-imidazol-4-yl)sulfonyl]piper-idin-3-yl}-4-[6-(4-fluorophenyl)imidazo[2,1-b][1,3]oxazol-5-yl]pyrimidin-2-amine] gave an inhibition at 10 µM (@ 10 uM) of 70%.

`Cc1cc(NC(=O)N2CCC[C@@H](Nc3nccc(-c4c(-c5ccc(F)cc5)nc5occn45)n3)C2)c(C(F)(F)F)o1` [Example 67, (3R)-3-({4-[6-(4-fluorophenyl)imidazo[2,1-b][1,3]oxazol-5-yl]pyrimidin-2-yl}amino)-N-[5-methyl-2-(trifluoromethyl)-3-furyl]piperidine-1-carboxamide] showed an inhibition at 10 µM (@ 10 uM) of 29%.

With `O=C(NCC1CCCCC1)N1CCC[C@@H](Nc2nccc(-c3c(-c4ccc(F)cc4)nc4occn34)n2)C1` [Example 68, (3R)-N-(cyclohexylmethyl)-3-({4-[6-(4-fluorophenyl)imi-dazo[2,1-b][1,3]oxazol-5-yl]pyrimidin-2-yl}amino)piperidine-1-carboxamide] the inhibition at 10 µM was 42%.

In the case of `COc1ccc(NC(=O)N2CCC[C@@H](Nc3nccc(-c4c(-c5ccc(F)cc5)nc5occn45)n3)C2)c(OC)c1` [Example 69, (3R)-N-(2,4-dimethoxy-phenyl)-3-({4-[6-(4-fluorophenyl)imidazo[2,1-b][1,3]oxazol-5-yl]pyrimidin-2-yl}amino)piperidine-1-carboxamide], the inhibition at 10 µM (@ 10 uM) was 42%.

Work on `COc1ccc(Cl)cc1NC(=O)N1CCC[C@@H](Nc2nccc(-c3c(-c4ccc(F)cc4)nc4occn34)n2)C1` [Example 70, (3R)-N-(5-chloro-2-methoxyphenyl)-3-({4-[6-(4-fluorophenyl)imidazo[2,1-b][1,3]oxazol-5-yl]pyrimidin-2-yl}amino)piperidine-1-carboxamide] yielded an inhibition at 10 µM (@ 10 uM) of 49%.

Work on `O=C(NCCc1ccc(F)cc1)N1CCC[C@@H](Nc2nccc(-c3c(-c4ccc(F)cc4)nc4occn34)n2)C1` [Example 71, (3R)-N-[2-(4-fluorophenyl)ethyl]-3-({4-[6-(4-fluorophenyl)imidazo[2,1-b][1,3]oxazol-5-yl]pyrimidin-2-yl}amino)piperidine-1-carboxamide] yielded an inhibition at 10 µM (@ 10 uM) of 16%.

`C[C@@H](NC(=O)N1CCC[C@@H](Nc2nccc(-c3c(-c4ccc(F)cc4)nc4occn34)n2)C1)c1ccccc1` [Example 72, (3R)-3-({4-[6-(4-fluorophenyl)imidazo[2,1-b][1,3]oxazol-5-yl]pyrimidin-2-yl}amino)-N-[(1R)-1-phenylethyl]piperidine-1-carboxamide] gave an inhibition at 10 µM (@ 10 uM) of 53%.
